“And” between values parts separate entries of the source, which are not always exact repeats. Equal entries are not always repeated. “Also recorded” adds a separate entry of the source.
Key:
[1] = test system: Phosphorylated TDP-43 aggregates; test: TDP-43 immunofluorescence; type: in vivo, mouse; parameters: key to Phosphorylated TDP-43 aggregates: − = not present; + = present; conditions: for Phosphorylated TDP-43 aggregates: SG-fed
Procedure: Tissue-mounted slides were processed for fluorescence microscopy as follows: Sections were rinsed in coplin jars for 45 minutes at room temperature (RT) in three changes of PBS. Sections were then incubated at RT for 30 minutes in a blocking permeabilization solution made of 5% normal goat serum (NGS), 5% normal rabbit serum (NRS) or 5% BlokHen II (Ayes Labs, Inc., Tigard, Oreg.), 0.05% Triton X-100 and PBS. Subsequently, the blocking solution was tipped off and the slides were rinsed in PBS for 2 minutes. Sections were then incubated overnight in a humidified chamber at 4° C. with a PBS buffered solution that contained 1% NGS or 1% NRS, 1% bovine serum albumin (BSA) and one of the following primary antibodies: (a) rabbit anti-human/mouse ATF-3 (H-90) IgG (polyclonal, 1:500; Santa Cruz Biotechnology, Inc., Santa Cruz, Calif.), (b) anti-activated caspase-3 IgG (monoclonal, 1:250; Chemicon International, Temecula, Calif.) (see FIG. 9), (c) goat antihuman/mouse choline acetyl transferase (ChAT) IgG (polyclonal, 1:100; Chemicon International, Temecula, Calif.) (see FIG. 6), (d) rabbit anti-mouse glial fibrillary acidic protein IgG (polyclonal, 1:250; GeneTex Inc., San Antonio, Tex.) (see FIG. 7), (e) rabbit antihuman/mouse ionized calcium binding adaptor molecule 1 (IBA-1) IgG (polyclonal, 1:500; Wako Pure Chemical Industries, Ltd, Richmond, Va.), (f) mouse anti-human/mouse clone AT8 PHF-1 Tau (monoclonal, 1:200; Pierce Biotechnology Inc., Rockford, Ill.), (g) rabbit anti-human/mouse TAR DNA-binding protein 43 (TDP43) (1:100; ProteinTech Group Inc., Chicago, Ill.) (See FIG. 14), (h) chicken anti-human/mouse β-tubulin 3 (TuJ1 antigen) (polyclonal, 1:100, Ayes Labs, Inc., Tigard, Oreg.), (i) rabbit anti-mouse tyrosine hydroxylase (polyclonal, 1:500, Chemicon International, Temecula, Calif. or polyclonal 1:1000, Affinity BioReagents, Golden, Colo.) (FIG. 10), (j) rabbit anti human/mouse anti-pJunscr73 IgG (polyclonal, 1:200; Chemicon International, Temecula, Calif.), (k) rabbit anti human/mouse anti-HSP-70 IgG (polyclonal, 1:200; Chemicon International, Temecula, Calif.), or (1) rabbit anti human/mouse anti-HSP-25 IgG (polyclonal, 1:100; Chemicon International, Temecula, Calif.). In each experiment, additional slides were incubated with the primary antibody and the secondary antibody omitted or with secondary antibody and primary antibody omitted to test for nonspecific staining. Where appropriate, positive control slides (Alzheimer's disease patient entorhinal cortex, obtained from Drs. Claudia Schwab and Patrick McGeer of the Kinsmen Laboratory, University of British Columbia, Vancouver, BC, Canada) were also processed as above for comparison. […]

[2] = Body weights of SG-fed mice; type: in vivo, mouse; conditions: SG-fed vs age-matched controls; SG 1000 μg per pellet daily for 15 weeks
Source text: Five-month old male CD-1 mice (30.1-35.7 g, 7.5 cm-8.8 cm) were purchased from Charles River (Wilmington, Mass.). Adult mice were chosen to mimic the mean age of onset of ALS-PDC (Kurland, L. T. (1988a) Trends Neurosci. 11, 51-4; Kurland, L. T., et al. (1994) Amyotrophic lateral sclerosis-parkinsonism-dementia complex on Guam: epidemiologic and etiological perspectives. 109-131). Thirty mice for the SG study were randomly divided into 2 groups (14 control and 16 experimental animals). All animals were housed singly in a virus-free barrier facility in a room maintained at 22° C. under a 12 hour light/dark cycle. The mice were provided ad libitum access to food and water.
The synthetic SG was mixed with finely ground Purina Chow mouse pellets (Mouse Diet™, Purina) to create the experimental pellets with a SG content of 1000 μg per pellet. Dry materials were blended with a sterile silicon spatula. For every 5 g of standard feed, 2.5 mL of doubly-distilled water (dd)H2O was added and the dough was kneaded and round up into pellets. A single sterol glucoside containing pellet was placed in the feeding tray each morning before the addition of regular mouse chow (ad libitum). All experimental pellets were entirely consumed by the mice each day. […] SG feeding was conducted daily for 15 weeks and mice were behaviorally monitored until sacrifice at 35 weeks (time point 1) or 52 weeks (time point 2).

CC[C@H](/C=C/[C@@H](C)[C@H]1CC[C@H]2[C@@H]3CC=C4C[C@@H](O[C@@H]5O[C@H](CO)[C@@H](O)[C@H](O)[C@H]5O)CC[C@]4(C)[C@H]3CC[C@]12C)C(C)C [SG, Stigmasterol β-D-Glucopyranoside]
Phosphorylated TDP-43 aggregates ([1]; Time-point 1 (35 wk)): No abnormal translocation of TDP-43 was observed and − | Phosphorylated TDP-43 aggregates ([1]; Time-point 2 (52 wk)): + | TDP-43 pathology, incidence in SG-fed group ([1]; Time-point 2 (52 wk), lumbar spinal cord): Two of eight and 2/8 | Pathologic phosphorylated TDP-43-containing aggregates, quantification ([1]; lumbar spinal cord, SG-fed animals): increased | Body weights [2]: normal weight gain; also recorded: not significantly different

Reference: US9573972B2, “Nurotoxic sterol glycosides” (priority 2008, dated 2017)
